Assay results from US6869625B2, “Method of treating diabetes using plant argyrolobium roseum extract, and a process for the isolation of extract from the said plant” (Council of Scientific and Industrial Research, priority 2001, dated 2005).

Test system: normal, 18 h fasting, glucose loaded & streptozotocin induced hyperglycaemic rats
Assay: hypoglycaemic activity (blood sugar) in rats after oral dosing
Format: in vivo
Experimental: 1 kg of A. roseum (whole plant) is shade dried and powdered. The powdered plant material was extracted with ethyl alcohol (5 litres) for 20 hours. The alcohol extract was vacuum dried. The yield was 91 gms. The dried alcoholic extract was macerated successively with hexane and chloroform to give 8.2 gms. and 39.3 gms. of the extracts respectively. A flavonoid glycoside (230 mgs) was isolated from the chloroform extract by repeated column chromatography over silica gel of mesh size 60-120 micron. […] The onset of effect within ½ h and the effect lasted for more than five hours. The fall of blood sugar recorded with above dose was 26 mg/dl (n=24) as compared to fall of 17 & 23 mg/dl recorded with tolbutamide, 50 mg/kg p.o. (n=9) and glipizide, 0.5 mg/kg p.o. (n=8) respectively in 18 h fasting rats.

Row | Structure (SMILES) | fall of blood sugar (0.5 mg/kg p.o., 18 h fasting rats (n=8)) [mg/dL] | fall of blood sugar (50 mg/kg p.o., 18 h fasting rats (n=9)) [mg/dL]
1 | Cc1cnc(C(=O)NCCc2ccc(S(=O)(=O)NC(=O)NC3CCCCC3)cc2)cn1 [glipizide] | 23 | 
2 | CCCCNC(=O)NS(=O)(=O)c1ccc(C)cc1 [tolbutamide] |  | 17
